Data reported in ChEMBL document CHEMBL4507327 (2021).
pIC50: −log10 of the molar value.

Legend:
[1] = molecular target: Mitogen-activated protein kinase 3 (Homo sapiens, UniProt P27361); assay: ERK1(MAP3LGY1) Takeda global kinase panel
Myotonin-protein kinase = Myotonin-protein kinase (Homo sapiens, UniProt Q09013); assay: DMPK(DMPKLGF1) Takeda global kinase panel
[2] = molecular target: Homeodomain-interacting protein kinase 1 (Homo sapiens, UniProt Q86Z02); assay: HIPK1(HIP1LGF1) Takeda global kinase panel
Homeodomain-interacting protein kinase 1, sequence (Q86Z02 whole entry): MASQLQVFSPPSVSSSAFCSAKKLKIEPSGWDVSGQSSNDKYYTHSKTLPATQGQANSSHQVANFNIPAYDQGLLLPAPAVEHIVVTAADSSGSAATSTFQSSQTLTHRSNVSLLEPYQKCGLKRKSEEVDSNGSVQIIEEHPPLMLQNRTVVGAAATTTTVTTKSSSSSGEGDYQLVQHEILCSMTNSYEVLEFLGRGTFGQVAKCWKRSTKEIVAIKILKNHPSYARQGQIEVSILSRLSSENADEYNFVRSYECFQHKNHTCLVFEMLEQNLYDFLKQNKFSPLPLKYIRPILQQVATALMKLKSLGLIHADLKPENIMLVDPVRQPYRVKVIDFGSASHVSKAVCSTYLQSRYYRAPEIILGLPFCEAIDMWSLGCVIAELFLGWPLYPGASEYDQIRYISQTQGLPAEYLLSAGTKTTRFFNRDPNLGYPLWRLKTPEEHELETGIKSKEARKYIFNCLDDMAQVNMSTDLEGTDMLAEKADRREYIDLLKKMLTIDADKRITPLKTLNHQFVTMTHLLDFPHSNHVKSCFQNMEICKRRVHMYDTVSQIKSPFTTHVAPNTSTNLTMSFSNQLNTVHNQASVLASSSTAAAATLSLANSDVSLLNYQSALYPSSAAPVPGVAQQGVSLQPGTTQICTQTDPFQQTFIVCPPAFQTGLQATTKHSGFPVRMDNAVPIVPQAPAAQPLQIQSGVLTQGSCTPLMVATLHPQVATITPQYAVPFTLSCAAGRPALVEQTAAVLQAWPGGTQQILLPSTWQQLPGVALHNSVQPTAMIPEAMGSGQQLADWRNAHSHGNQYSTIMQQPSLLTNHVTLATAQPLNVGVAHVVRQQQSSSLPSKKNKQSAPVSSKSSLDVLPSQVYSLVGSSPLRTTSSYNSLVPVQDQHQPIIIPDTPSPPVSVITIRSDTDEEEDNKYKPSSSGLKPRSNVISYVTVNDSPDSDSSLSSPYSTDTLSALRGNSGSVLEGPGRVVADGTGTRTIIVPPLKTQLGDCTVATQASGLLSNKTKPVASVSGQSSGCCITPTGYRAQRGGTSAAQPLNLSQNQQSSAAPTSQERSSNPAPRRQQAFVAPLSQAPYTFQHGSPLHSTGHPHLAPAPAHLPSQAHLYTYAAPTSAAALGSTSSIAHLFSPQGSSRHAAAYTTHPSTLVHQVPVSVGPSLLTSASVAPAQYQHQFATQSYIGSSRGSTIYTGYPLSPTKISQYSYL

Ephrin type-B receptor 2 = Ephrin type-B receptor 2 (Homo sapiens, UniProt P29323); assay: EphB2(EPB2LGY1) Takeda global kinase panel
[3] = molecular target: Eukaryotic translation initiation factor 2-alpha kinase 3 (Homo sapiens, UniProt Q9NZJ5); assay: PERK [PEK(EIK3CGQ1)] Takeda global kinase panel
[4] = molecular target: Hormonally up-regulated neu tumor-associated kinase (Homo sapiens, UniProt P57058); assay: HUNK(HUNKLGRN) Takeda global kinase panel
[5] = molecular target: Sodium-dependent noradrenaline transporter (Homo sapiens) (UniProt P23975); settings: Compound concentration 10.0 uM
[6] = molecular target: Cyclin-dependent kinase 6 (Homo sapiens, UniProt Q00534); assay: CDK6(CDK6CGS1) Takeda global kinase panel
Cyclin-dependent kinase 6, sequence (Q00534 whole entry): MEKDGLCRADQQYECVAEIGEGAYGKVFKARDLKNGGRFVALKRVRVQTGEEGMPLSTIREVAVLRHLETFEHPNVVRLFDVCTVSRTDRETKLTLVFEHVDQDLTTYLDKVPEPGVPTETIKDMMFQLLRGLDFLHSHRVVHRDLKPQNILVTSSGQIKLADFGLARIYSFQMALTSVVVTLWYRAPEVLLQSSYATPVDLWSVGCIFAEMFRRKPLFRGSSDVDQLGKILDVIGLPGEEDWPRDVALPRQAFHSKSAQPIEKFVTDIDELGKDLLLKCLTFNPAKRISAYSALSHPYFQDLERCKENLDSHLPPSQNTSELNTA

[7] = molecular target: Death-associated protein kinase 3 (Homo sapiens, UniProt O43293); assay: DAPK3(DAP3LGP1) Takeda global kinase panel
[8] = molecular target: 5-hydroxytryptamine receptor 2B (Homo sapiens) (UniProt P41595); settings: Compound concentration 10.0 uM
[9] = molecular target: Dual specificity protein kinase CLK4 (Homo sapiens, UniProt Q9HAZ1); assay: CLK4(CLK4IGF1) Takeda global kinase panel
[10] = molecular target: Ribosomal protein S6 kinase alpha-2 (Homo sapiens, UniProt Q15349); assay: RSK3(R6A1CGE1) Takeda global kinase panel
[11] = molecular target: Serine/threonine-protein kinase Sgk2 (Homo sapiens, UniProt Q9HBY8); assay: SGK2(SGK2LGE5) Takeda global kinase panel
[12] = molecular target: Substance-P receptor (Homo sapiens) (UniProt P25103); assay: Inhibition of Tachykinin NK1 at 10 µM in the Eurofins-Panlabs radioligand binding assay (Eurofins_assay_255520); parameters: ligand concentration 0.8 nM; settings: Compound concentration 10.0 uM
[13] = molecular target: Serine/threonine-protein kinase 32C (Homo sapiens, UniProt Q86UX6); assay: YANK3(S32CLGI1) Takeda global kinase panel
Rattus norvegicus = organism: Rattus norvegicus; assay: Inhibition of Rolipram at 10 µM in the Eurofins-Panlabs radioligand binding assay (Eurofins_assay_268811); format: protein assay; parameters: ligand concentration 1.8 nM; settings: Compound concentration 10.0 uM
[14] = molecular target: Protein kinase C eta type (Homo sapiens, UniProt P24723); assay: PKCeta(PRKHLGRA) Takeda global kinase panel
[15] = molecular target: Mitogen-activated protein kinase 10 (Homo sapiens, UniProt P53779); assay: JNK3(MP10LGF2) Takeda global kinase panel
[16] = molecular target: Serine/threonine-protein kinase SBK1 (Homo sapiens, UniProt Q52WX2); assay: SBK(SBK1LGY1) Takeda global kinase panel
[17] = molecular target: Mitogen-activated protein kinase kinase kinase kinase 1 (Homo sapiens, UniProt Q92918); assay: HPK1(M4K1LGY1) Takeda global kinase panel
[18] = molecular target: Serine/threonine-protein kinase 33 (Homo sapiens, UniProt Q9BYT3); assay: STK33(ST33LGF1) Takeda global kinase panel
[19] = molecular target: Bromodomain-containing protein 4 (Homo sapiens, UniProt O60885); assay: BRD4(BRD4LGRC) Takeda global kinase panel
[20] = molecular target: Protein kinase C iota type (Homo sapiens, UniProt P41743); assay: PKCiota(PRKILGRD) Takeda global kinase panel
Protein kinase C iota type, sequence (P41743 whole entry, the tested form may be a part): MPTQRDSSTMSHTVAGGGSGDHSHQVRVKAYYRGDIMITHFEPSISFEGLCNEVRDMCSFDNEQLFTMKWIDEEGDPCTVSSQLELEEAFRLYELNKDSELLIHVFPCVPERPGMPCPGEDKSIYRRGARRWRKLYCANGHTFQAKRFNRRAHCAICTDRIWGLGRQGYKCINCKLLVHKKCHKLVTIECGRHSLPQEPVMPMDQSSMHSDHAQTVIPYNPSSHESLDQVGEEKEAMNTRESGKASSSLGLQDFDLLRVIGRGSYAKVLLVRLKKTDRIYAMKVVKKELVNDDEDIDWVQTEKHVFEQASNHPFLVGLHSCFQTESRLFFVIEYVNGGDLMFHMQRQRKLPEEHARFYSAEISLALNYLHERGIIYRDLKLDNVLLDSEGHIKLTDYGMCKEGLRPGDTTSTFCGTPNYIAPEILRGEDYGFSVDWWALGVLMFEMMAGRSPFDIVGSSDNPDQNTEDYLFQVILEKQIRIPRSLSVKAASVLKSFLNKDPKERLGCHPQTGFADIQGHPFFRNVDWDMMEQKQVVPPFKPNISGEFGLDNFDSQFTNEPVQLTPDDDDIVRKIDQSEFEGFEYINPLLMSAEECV

[21] = molecular target: PAS domain-containing serine/threonine-protein kinase (Homo sapiens, UniProt Q96RG2); assay: PASK(PASKPHY1) Takeda global kinase panel
[22] = molecular target: Homeodomain-interacting protein kinase 2 (Homo sapiens, UniProt Q9H2X6); assay: HIPK2(HIP2LGY1) Takeda global kinase panel
[23] = molecular target: ATP-sensitive inward rectifier potassium channel 11 (Cricetulus griseus) (UniProt A0A3L7HHE1); assay: Inhibition of Potassium Channel [KATP] at 10 µM in the Eurofins-Panlabs radioligand binding assay (Eurofins_assay_265600); settings: Cricetinae; Compound concentration 10.0 uM
[24] = molecular target: Serine/threonine-protein kinase H1 (Homo sapiens, UniProt P11801); assay: PSKH1(PSH1LGRH) Takeda global kinase panel
[25] = molecular target: Cysteinyl leukotriene receptor 1 (Homo sapiens) (UniProt Q9Y271); assay: Inhibition of Leukotriene, Cysteinyl CysLT1 at 10 µM in the Eurofins-Panlabs radioligand binding assay (Eurofins_assay_250460); parameters: ligand concentration 0.3 nM, non-specific ligand with concentration 0.3 µM Leukotriene D4, incubation time 30 min, incubation temperature 25 °C; settings: Compound concentration 10.0 uM
Rhodopsin kinase GRK1 = Rhodopsin kinase GRK1 (Homo sapiens, UniProt Q15835); assay: RHODK [GRK1(GRK1LGA1)] Takeda global kinase panel
Rhodopsin kinase GRK1, sequence (Q15835 whole entry): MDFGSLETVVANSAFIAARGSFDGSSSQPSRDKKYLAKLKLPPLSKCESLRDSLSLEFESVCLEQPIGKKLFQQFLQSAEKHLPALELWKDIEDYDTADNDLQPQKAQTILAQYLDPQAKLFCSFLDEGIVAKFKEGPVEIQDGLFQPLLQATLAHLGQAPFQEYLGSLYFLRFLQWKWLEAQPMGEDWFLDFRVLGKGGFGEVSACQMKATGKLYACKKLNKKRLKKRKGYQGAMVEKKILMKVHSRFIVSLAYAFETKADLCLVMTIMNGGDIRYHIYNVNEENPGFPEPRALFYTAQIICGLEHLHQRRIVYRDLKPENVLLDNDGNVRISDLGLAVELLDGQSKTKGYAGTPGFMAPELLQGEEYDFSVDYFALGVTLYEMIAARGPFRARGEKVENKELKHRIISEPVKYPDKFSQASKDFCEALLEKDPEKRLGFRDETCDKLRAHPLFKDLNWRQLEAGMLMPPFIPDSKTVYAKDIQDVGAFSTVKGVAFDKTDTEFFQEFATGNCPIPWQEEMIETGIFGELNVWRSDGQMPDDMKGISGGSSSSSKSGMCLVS

[26] = molecular target: Citron Rho-interacting kinase (Homo sapiens, UniProt O14578); assay: CRIK(CIT1LGY1) Takeda global kinase panel
LIM domain kinase 1 = LIM domain kinase 1 (Homo sapiens, UniProt P53667); assay: LIMK1(LIM1LGY1) Takeda global kinase panel
[27] = molecular target: Receptor-interacting serine/threonine-protein kinase 3 (Homo sapiens, UniProt Q9Y572); assay: RIPK3(RIP3IGRI) Takeda global kinase panel
[28] = molecular target: Receptor-interacting serine/threonine-protein kinase 2 (Homo sapiens, UniProt O43353); assay: RIPK2(RIP2LGI1) Takeda global kinase panel
[29] = molecular target: Tyrosine-protein kinase BTK (Homo sapiens, UniProt Q06187); assay: BTK(BTK1CGF1) Takeda global kinase panel
[30] = molecular target: Estrogen receptor (Homo sapiens) (UniProt P03372); settings: Compound concentration 10.0 uM
[31] = molecular target: Tyrosine-protein kinase CSK (Homo sapiens, UniProt P41240); assay: CSK(CSK1LGF1) Takeda global kinase panel
[32] = molecular target: Myosin light chain kinase (Homo sapiens, UniProt Q32MK0); assay: caMLCK(MYL3LGF1) Takeda global kinase panel
[33] = molecular target: BMP-2-inducible protein kinase (Homo sapiens, UniProt Q9NSY1); assay: BIKE(BM2KLGY1) Takeda global kinase panel
BMP-2-inducible protein kinase, sequence (Q9NSY1 whole entry): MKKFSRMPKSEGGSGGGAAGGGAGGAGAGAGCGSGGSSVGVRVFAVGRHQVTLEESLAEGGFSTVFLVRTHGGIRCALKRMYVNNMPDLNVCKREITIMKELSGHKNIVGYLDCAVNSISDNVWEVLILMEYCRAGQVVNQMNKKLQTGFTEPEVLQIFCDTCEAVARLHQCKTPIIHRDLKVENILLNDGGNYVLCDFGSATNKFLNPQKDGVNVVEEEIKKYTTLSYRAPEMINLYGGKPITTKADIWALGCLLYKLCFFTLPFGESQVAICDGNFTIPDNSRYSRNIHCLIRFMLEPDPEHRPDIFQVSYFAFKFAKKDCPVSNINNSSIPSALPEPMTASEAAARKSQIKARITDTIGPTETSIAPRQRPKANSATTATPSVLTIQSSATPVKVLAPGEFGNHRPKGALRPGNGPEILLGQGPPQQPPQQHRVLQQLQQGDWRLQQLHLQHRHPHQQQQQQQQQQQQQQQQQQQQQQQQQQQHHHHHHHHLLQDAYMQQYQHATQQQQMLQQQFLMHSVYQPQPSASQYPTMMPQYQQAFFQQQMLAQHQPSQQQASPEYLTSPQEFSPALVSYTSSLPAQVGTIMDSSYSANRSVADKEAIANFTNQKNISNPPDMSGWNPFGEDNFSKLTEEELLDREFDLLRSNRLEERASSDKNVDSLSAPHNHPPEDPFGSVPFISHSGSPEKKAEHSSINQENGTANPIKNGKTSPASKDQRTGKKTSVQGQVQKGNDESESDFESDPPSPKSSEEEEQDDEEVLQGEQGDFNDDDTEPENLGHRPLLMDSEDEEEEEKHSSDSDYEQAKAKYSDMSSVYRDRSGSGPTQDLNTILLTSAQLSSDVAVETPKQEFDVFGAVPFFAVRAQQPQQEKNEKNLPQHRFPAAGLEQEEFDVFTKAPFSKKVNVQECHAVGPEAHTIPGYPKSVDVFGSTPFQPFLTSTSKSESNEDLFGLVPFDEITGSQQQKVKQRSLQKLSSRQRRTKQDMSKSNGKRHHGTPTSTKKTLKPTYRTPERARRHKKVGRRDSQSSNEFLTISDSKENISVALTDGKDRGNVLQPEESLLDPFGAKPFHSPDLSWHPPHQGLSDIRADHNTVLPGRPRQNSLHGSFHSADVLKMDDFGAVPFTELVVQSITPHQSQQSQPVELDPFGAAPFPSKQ

[34] = molecular target: Calcium/calmodulin-dependent protein kinase type 1B (Homo sapiens, UniProt Q6P2M8); assay: CaMK1beta(PNCKLGRI) Takeda global kinase panel
[35] = molecular target: Mitogen-activated protein kinase kinase kinase 20 (Homo sapiens, UniProt Q9NYL2); assay: ZAK(ZAK1LGY1) Takeda global kinase panel
Ephrin type-A receptor 7 = Ephrin type-A receptor 7 (Homo sapiens, UniProt Q15375); assay: EphA7(EPA7LGF1) Takeda global kinase panel
Ephrin type-A receptor 7, sequence (Q15375 whole entry): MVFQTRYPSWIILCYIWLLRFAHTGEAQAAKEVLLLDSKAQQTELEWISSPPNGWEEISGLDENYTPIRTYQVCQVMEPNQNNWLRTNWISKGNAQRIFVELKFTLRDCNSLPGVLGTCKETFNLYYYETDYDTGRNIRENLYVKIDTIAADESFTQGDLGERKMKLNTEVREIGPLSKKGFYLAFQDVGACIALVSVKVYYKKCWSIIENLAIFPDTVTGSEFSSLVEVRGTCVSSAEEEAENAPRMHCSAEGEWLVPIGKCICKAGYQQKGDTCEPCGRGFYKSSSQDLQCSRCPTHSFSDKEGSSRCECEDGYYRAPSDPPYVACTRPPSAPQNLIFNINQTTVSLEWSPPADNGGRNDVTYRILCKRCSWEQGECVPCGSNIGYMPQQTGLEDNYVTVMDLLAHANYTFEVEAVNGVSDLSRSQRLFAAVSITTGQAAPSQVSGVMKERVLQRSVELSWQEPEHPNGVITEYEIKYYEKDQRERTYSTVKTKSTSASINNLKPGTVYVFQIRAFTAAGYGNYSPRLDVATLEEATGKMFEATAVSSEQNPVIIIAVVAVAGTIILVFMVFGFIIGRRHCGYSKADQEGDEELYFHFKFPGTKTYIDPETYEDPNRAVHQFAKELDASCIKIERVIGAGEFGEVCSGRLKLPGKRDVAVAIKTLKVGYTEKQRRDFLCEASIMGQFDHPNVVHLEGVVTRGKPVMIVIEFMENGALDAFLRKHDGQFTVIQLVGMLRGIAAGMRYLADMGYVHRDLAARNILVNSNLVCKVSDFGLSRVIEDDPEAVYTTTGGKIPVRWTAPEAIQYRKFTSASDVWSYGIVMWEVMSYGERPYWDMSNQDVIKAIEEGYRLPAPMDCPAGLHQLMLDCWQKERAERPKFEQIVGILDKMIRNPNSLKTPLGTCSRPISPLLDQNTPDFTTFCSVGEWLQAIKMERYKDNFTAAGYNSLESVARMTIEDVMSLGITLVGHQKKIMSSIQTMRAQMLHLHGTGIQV

[36] = molecular target: Serine/threonine-protein kinase BRSK1 (Homo sapiens, UniProt Q8TDC3); assay: BRSK1(BRS1LGA1) Takeda global kinase panel
[37] = molecular target: Protein-tyrosine kinase 6 (Homo sapiens, UniProt Q13882); assay: Brk(PTK6LGY1) Takeda global kinase panel
[38] = molecular target: Tyrosine-protein kinase Lck (Homo sapiens, UniProt P06239); assay: Lck(LCK1LGF1) Takeda global kinase panel
[39] = molecular target: Serine/threonine-protein kinase PAK 5 (Homo sapiens, UniProt Q9P286); assay: PAK5(PAK7LGF1) Takeda global kinase panel

CN1C(=O)[C@@H](N2CCc3cn(Cc4ccccc4)nc3C2=O)COc2ccccc21 [TP-030-1]
inactive: inhibition [5] 15% | inhibition [8] 6% | inhibition [12] 29% | inhibition (Rattus norvegicus) 0% | inhibition [23] 6% | inhibition [25] 0% | inhibition [30] 36%
6.00: pIC50 [1] | pIC50 (Myotonin-protein kinase) | pIC50 [2] | pIC50 (Ephrin type-B receptor 2) | pIC50 [3] | pIC50 [4] | pIC50 [6] | pIC50 [7] | pIC50 [9] | pIC50 [10] | pIC50 [11] | pIC50 [13] | pIC50 [14] | pIC50 [15] | pIC50 [16] | pIC50 [17] | pIC50 [18] | pIC50 [19] | pIC50 [20] | pIC50 [21] | pIC50 [22] | pIC50 [24] | pIC50 (Rhodopsin kinase GRK1) | pIC50 [26] | pIC50 (LIM domain kinase 1) | pIC50 [27] | pIC50 [28] | pIC50 [29] | pIC50 [31] | pIC50 [32] | pIC50 [33] | pIC50 [34] | pIC50 [35] | pIC50 (Ephrin type-A receptor 7) | pIC50 [36] | pIC50 [37] | pIC50 [38] | pIC50 [39]

CN1C(=O)[C@@H](N2CCc3cn(CC4CCS(=O)(=O)CC4)nc3C2=O)COc2ccccc21 [TP-030n]
inactive: inhibition [5] 3% | inhibition [8] -2% | inhibition [12] 14% | inhibition (Rattus norvegicus) 1% | inhibition [23] 5% | inhibition [25] 0% | inhibition [30] 5%
6.00: pIC50 [1] | pIC50 (Myotonin-protein kinase) | pIC50 [2] | pIC50 (Ephrin type-B receptor 2) | pIC50 [3] | pIC50 [4] | pIC50 [6] | pIC50 [7] | pIC50 [9] | pIC50 [10] | pIC50 [11] | pIC50 [13] | pIC50 [14] | pIC50 [15] | pIC50 [16] | pIC50 [17] | pIC50 [18] | pIC50 [19] | pIC50 [20] | pIC50 [21] | pIC50 [22] | pIC50 [24] | pIC50 (Rhodopsin kinase GRK1) | pIC50 [26] | pIC50 (LIM domain kinase 1) | pIC50 [27] | pIC50 [28] | pIC50 [29] | pIC50 [31] | pIC50 [32] | pIC50 [33] | pIC50 [34] | pIC50 [35] | pIC50 (Ephrin type-A receptor 7) | pIC50 [36] | pIC50 [37] | pIC50 [38] | pIC50 [39]
